Data taken from US9717699B2, “Sterilized compositions of cyanoacrylate monomers and naphthoquinone 2,3-oxides” (Adhezion Biomedical, LLC, priority 2014, dated 2017).

Test: Miscibility/solubility of additive in cyanoacrylate monomer
Assay type: physicochemical
Conditions: activated 2-octyl cyanoacrylate composition, room temperature

| Compound | Miscibility with 2-octyl cyanoacrylate | Miscibility with 2-octyl cyanoacrylate (listed as Phylloquinone oxide) |
| --- | --- | --- |
| CC(=O)Oc1cc(C)c(OC(C)=O)c2ccccc12 [1,4-diacetoxy-2-methylnaphthalene] | well soluble |  |
| CC1=C(C/C=C(\C)CCC[C@H](C)CCC[C@H](C)CCCC(C)C)C(=O)c2ccccc2C1=O [2-methyl-3-phytyl-1,4-naphthoquinone] | well dissolved |  |
| CC1=CC(=O)c2ccccc2C1=O [2-methyl-1,4-naphthoquinone] | well-miscible |  |
| C/C(=C\CC12OC1(C)C(=O)c1ccccc1C2=O)CCCC(C)CCCC(C)CCCC(C)C (centres unmarked) [Vitamin K1 oxide, 2-methyl-3-phytyl-1,4-naphthoquinone 2,3-oxide] | well-miscible | well miscible |
